Assay results as given in PMC8819633 (Journal of medicinal chemistry, 2021).

Key:
[1] = tested on: P-PRAS40 (T246) and P-S6 (S240/244); test: Western blot of downstream signaling inhibition in BT474 cells; type: cell-based, human; conditions: for inhibition of downstream signaling, P-PRAS40 and P-S6: compared with GDC-0068 (1 μM); for kinetics of downstream signaling inhibition: vs GDC-0068
[2] = tested on: total AKT (T-AKT) and phosphorylated AKT (P-AKT (S473)); test: Western blot of AKT degradation in BT474 cells; type: cell-based, human; conditions: for T-AKT and P-AKT protein degradation (western blot): 24 h, 1, 5 and 10 μM (12-13: 1, 3 and 10 μM); for hook effect in AKT degradation: higher concentrations (up to 10 μM); for time course of T-AKT and P-AKT degradation: indicated times; for extent of T-AKT degradation in concentration-response: indicated concentrations; for hook effect in concentration-response: concentrations up to 10 μM; for P-AKT (S473) protein level (western blot): GDC-0068 at 1 μM; for T-AKT protein level (western blot): controls at 1 μM
[3] = tested on: MDA-MB-468 cells; test: Apoptosis assay; type: cell-based, human; conditions: MDA-MB-468 cells (Figure S5)
[4] = tested on: PC3 cells; test: Cell proliferation assay; type: cell-based, human; conditions: 5 days
[5] = tested on: T-AKT and P-AKT (S473); test: Western blot of AKT degradation in PC3 cells; type: cell-based, human; conditions: for T-AKT and P-AKT degradation (western blot): PC3 cells, 1 μM, 24 h
[6] = tested on: MDA-MB-468 cells; test: Cell proliferation assay; type: cell-based, human; conditions: 5 days
[7] = 50 mg/kg; for time of Cmax: male Swiss albino mice, single IP injection
[8] = tested on: T-AKT and P-AKT; test: Competition; type: cell-based, human; conditions: BT474, then degrader 22 h; for effect of GDC-0068 pretreatment on degrader-induced AKT degradation: 2 h pretreatment with GDC-0068 (1 μM); for effect of MG132 pretreatment on degrader-induced AKT degradation: 2 h pretreatment with MG132 (10 μM); for effect of MLN4924 pretreatment on degrader-induced AKT degradation: 2 h pretreatment with MLN4924 (1 μM)
[9] = type: in vivo; conditions: mice, single IP injection, 50 mg/kg
[10] = tested on: P-PRAS40 (T246) and P-S6 (S240/244); test: Western blot of downstream signaling inhibition in PC3 cells; type: cell-based, human; conditions: 1 μM, 24 h, vs GSK690693

Cc1ncsc1-c1ccc(CNC(=O)[C@@H]2C[C@@H](O)CN2C(=O)[C@@H](NC(=O)CCCCCCCCCCNC(=O)CCNC[C@@H](C(=O)N2CCN(c3ncnc4c3[C@H](C)C[C@H]4O)CC2)c2ccc(Cl)cc2)C(C)(C)C)cc1 [Compound 11, (2S,4R)-1-((S)-2-(11-(3-(((S)-2-(4-Chlorophenyl)-3-(4-((5R,7R)-7-hydroxy-5-methyl-6,7-dihydro-5H-cyclopenta[d]pyrimidin-4-yl)-piperazin-1-yl)-3-oxopropyl)amino)propanamido)-undecanamido)-3,3-dimethylbutanoyl)-4-hydroxy-N-(4-(4-methyl-thiazol-5-yl)benzyl)pyrrolidine-2-carboxamide]
inhibition of downstream signaling, P-PRAS40 and P-S6 ([1]; 24 h): less effective than the parent inhibitor GDC-0068
T-AKT and P-AKT protein degradation (western blot) [2]: near-complete degradation of T-AKT and P-AKT at 1 μM
hook effect in AKT degradation ([2]; 24 h): at 5 and 10 μM, a ″hook effect″ was observed

Cc1ncsc1-c1ccc([C@H](C)NC(=O)[C@@H]2C[C@@H](O)CN2C(=O)[C@@H](NC(=O)CCCCCCCCCCNC(=O)CCNC[C@@H](C(=O)N2CCN(c3ncnc4c3[C@H](C)C[C@H]4O)CC2)c2ccc(Cl)cc2)C(C)(C)C)cc1 [Compound 12, (2S,4R)-1-((S)-2-(11-(3-(((S)-2-(4-Chlorophenyl)-3-(4-((5R,7R)-7-hydroxy-5-methyl-6,7-dihydro-5H-cyclopenta[d]pyrimidin-4-yl)-piperazin-1-yl)-3-oxopropyl)amino)propanamido)-undecanamido)-3,3-dimethylbutanoyl)-4-hydroxy-N-((S)-1-(4-(4-methylthiazol-5-yl)phenyl)ethyl)pyrrolidine-2-carboxamide]
inhibition of downstream signaling, P-PRAS40 and P-S6 ([1]; 24 h): more profound inhibition of P-PRAS40 and P-S6 than 11
T-AKT and P-AKT protein degradation (western blot) [2]: remarkable effects on degrading T-AKT and P-AKT

Cc1ncsc1-c1ccc([C@H](C)NC(=O)[C@@H]2C[C@@H](O)CN2C(=O)[C@@H](NC(=O)CCCCCCCCCCC(=O)NCCNC[C@@H](C(=O)N2CCN(c3ncnc4c3[C@H](C)C[C@H]4O)CC2)c2ccc(Cl)cc2)C(C)(C)C)cc1 [Compound 13, N^1-(2-(((S)-2-(4-Chlorophenyl)-3-(4-((5R,7R)-7-hydroxy-5-methyl-6,7-dihydro-5H-cyclopenta[d]pyrimidin-4-yl)piperazin-1-yl)-3-oxopropyl)amino)ethyl)-N^12-((S)-1-((2S,4R)-4-hydroxy-2-(((S)-1-(4-(4-methylthiazol-5-yl)phenyl)ethyl)carbamoyl)pyrrolidin-1-yl)-3,3-dimethyl-1-oxobutan-2-yl)dodecanediamide]
kinetics of downstream signaling inhibition ([1]; 1 μM): not as rapid as that induced by GDC-0068
inhibition of downstream signaling, P-PRAS40 and P-S6 ([1]; 24 h): more profound inhibition of P-PRAS40 and P-S6 than 11
apoptosis induced [3]: ≤ 3%
growth inhibition [4]: comparable potencies to GDC-0068 and INY-03–041
AKT degradation, concentration-response [5]: effectively induced AKT degradation in a concentration-dependent manner
duration of T-AKT and P-AKT degradation ([2]; 1 μM): at least 24 h
time course of T-AKT and P-AKT degradation ([2]; 1 μM): Obvious degradation occurred at 4 h, and near-complete degradation was achieved at 8 h
T-AKT and P-AKT protein degradation (western blot) [2]: remarkable effects on degrading T-AKT and P-AKT
hook effect in AKT degradation ([2]; 24 h): less ″hook effect″ than 12
extent of T-AKT degradation in concentration-response ([2]; 24 h): near-complete depletion of T-AKT at 1 μM
hook effect in concentration-response [2]: No ″hook effect″ was observed
growth inhibition [6]: comparable potencies to GDC-0068 and INY-03–041
time of Cmax [7]: 2 h
plasma concentrations over 8 h ([7]; mouse, in vivo, ip): above 3 μM
effect of GDC-0068 pretreatment on degrader-induced AKT degradation [8]: blocked the AKT degradation induced by 13
effect of MG132 pretreatment on degrader-induced AKT degradation [8]: completely prevented 13-mediated degradation of T-AKT and P-AKT and inhibition of P-PRAS40
effect of MLN4924 pretreatment on degrader-induced AKT degradation [8]: completely prevented 13-mediated degradation of T-AKT and P-AKT and inhibition of P-PRAS40
tolerability [9]: well tolerated

C[C@@H]1C[C@@H](O)c2ncnc(N3CCN(C(=O)[C@H](CNCCC(=O)NCCCCCCCCNc4cccc5c4C(=O)N(C4CCC(=O)NC4=O)C5=O)c4ccc(Cl)cc4)CC3)c21 (stereo partly shown) [Compound 25]
kinetics of downstream signaling inhibition ([1]; 1 μM): not as rapid as that induced by GDC-0068
inhibition of downstream signaling, P-PRAS40 and P-S6 ([1]; 24 h): most effective in inhibiting the downstream signaling
apoptosis induced [3]: ≤ 3%
growth inhibition [4]: comparable potencies to GDC-0068 and INY-03–041
AKT degradation, concentration-response [5]: effectively induced AKT degradation in a concentration-dependent manner
duration of T-AKT and P-AKT degradation ([2]; 1 μM): at least 24 h
T-AKT and P-AKT degradation ([2]; 1 μM, 24 h): > 95%
time course of T-AKT and P-AKT degradation ([2]; 1 μM): Significant P-AKT and T-AKT degradation occurred as early as 4 and 8 h, respectively
T-AKT and P-AKT protein degradation (western blot) [2]: highly effective in reducing T-AKT and P-AKT protein levels
hook effect in AKT degradation ([2]; 24 h): without a ″hook effect″
extent of T-AKT degradation in concentration-response ([2]; 24 h): complete degradation of T-AKT at 300 nM
hook effect in concentration-response [2]: No ″hook effect″ was observed
growth inhibition [6]: comparable potencies to GDC-0068 and INY-03–041
time of Cmax [7]: 2 h
effect of GDC-0068 pretreatment on degrader-induced AKT degradation [8]: rescued 25-induced AKT degradation
effect of MG132 pretreatment on degrader-induced AKT degradation [8]: rescued 25-induced AKT degradation
effect of MLN4924 pretreatment on degrader-induced AKT degradation [8]: rescued 25-induced AKT degradation
tolerability [9]: well tolerated

C[C@@H]1C[C@@H](O)c2ncnc(N3CCN(C(=O)[C@H](CNCCNC(=O)CCCCCCCCNc4cccc5c4C(=O)N(C4CCC(=O)NC4=O)C5=O)c4ccc(Cl)cc4)CC3)c21 (stereo partly drawn) [Compound 26, N-(2-(((S)-2-(4-chlorophenyl)-3-(4-((5R,7R)-7-hydroxy-5-methyl-6,7-dihydro-5H-cyclopenta[d]pyrimidin-4-yl)piperazin-1-yl)-3-oxopropyl)amino)ethyl)-9-((2-(2,6-dioxopiperidin-3-yl)-1,3-dioxoisoindolin-4-yl)amino)nonanamide]
inhibition of P-PRAS40 ([1]; 1 μM, 24 h): as effectively as GDC-0068
P-AKT (S473) protein level (western blot) ([2]; 24 h): did not reduce the P-AKT level
T-AKT protein level (western blot) ([2]; 24 h): partially degraded T-AKT

CCn1c(-c2nonc2N)nc2c(C#CC(C)(C)O)ncc(OCCCNCCCC(=O)NCCCCCCCCCCC(=O)N[C@H](C(=O)N3C[C@H](O)C[C@H]3C(=O)NCc3ccc(-c4scnc4C)cc3)C(C)(C)C)c21 [Compound 48, (2S,4R)-1-((S)-2-(11-(4-((3-((2-(4-Amino-1,2,5-oxadiazol-3-yl)-1-ethyl-4-(3-hydroxy-3-methylbut-1-yn-1-yl)-1H-imidazo[4,5-c]-pyridin-7-yl)oxy)propyl)amino)butanamido)undecanamido)-3,3-dimethylbutanoyl)-4-hydroxy-N-(4-(4-methylthiazol-5-yl)benzyl)-pyrrolidine-2-carboxamide]
T-AKT and P-AKT degradation (western blot) [5]: the most effective in degrading T-AKT and P-AKT
inhibition of P-PRAS40 [10]: less effective than GSK690693 in inhibiting P-PRAS40

CCn1c(-c2nonc2N)nc2c(C#CC(C)(C)O)ncc(OCCCNCCCC(=O)NCCCCCCCCNc3cccc4c3C(=O)N(C3CCC(=O)NC3=O)C4=O)c21 (stereo not shown) [Compound 60, 4-((3-((2-(4-Amino-1,2,5-oxadiazol-3-yl)-1-ethyl-4-(3-hydroxy-3-methylbut-1-yn-1-yl)-1H-imidazo[4,5-c]pyridin-7-yl)oxy)propyl)-amino)-N-(8-((2-(2,6-dioxopiperidin-3-yl)-1,3-dioxoisoindolin-4-yl)-amino)octyl)butanamide]
T-AKT and P-AKT degradation (western blot) [5]: the most effective in degrading T-AKT and P-AKT
inhibition of P-PRAS40 [10]: less effective than GSK690693 in inhibiting P-PRAS40

CC(C)NC[C@@H](C(=O)N1CCN(c2ncnc3c2[C@H](C)C[C@H]3O)CC1)c1ccc(Cl)cc1 [GDC-0068, reference compound]
inhibition of downstream signaling, P-PRAS40 and P-S6 ([1]; 24 h): effectively inhibited downstream signaling
time course of T-AKT and P-AKT degradation ([2]; 1 μM): no effect on the T-AKT protein level and increased the P-AKT protein level
P-AKT (S473) protein level (western blot) ([2]; 24 h): AKT hyperphosphorylation
T-AKT protein level (western blot) ([2]; 24 h): no detectable effect on the T-AKT protein level
